Test results as given in ChEMBL document CHEMBL4602648, “The bioisosteric modification of pyrazinamide derivatives led to potent antitubercular agents: Synthesis via click approach and molecular docking of pyrazine-1,2,3-triazoles” (Bioorg Med Chem Lett, 2020).
In brackets after ≈: the same amount, converted by molar mass. Activity calls are given as the source filed them. The calls are words filed in the database; no cut-off is given here.

Assays:
Pseudomonas aeruginosa = experiment: Antibacterial activity against Pseudomonas aeruginosa by dilution assay; assay type: functional
Escherichia coli = experiment: Antibacterial activity against Escherichia coli by dilution assay; assay type: functional
[1] = biological target: T1, Enoyl-[acyl-carrier-protein] reductase [NADH] (Mycobacterium tuberculosis) (UniProt P9WGR1); experiment: Inhibition of Mycobacterium tuberculosis H37Rv ATCC 27294 InhA assessed as bacterial growth inhibition after 5 days by microplate alamar blue assay
T1 sequence (whole entry): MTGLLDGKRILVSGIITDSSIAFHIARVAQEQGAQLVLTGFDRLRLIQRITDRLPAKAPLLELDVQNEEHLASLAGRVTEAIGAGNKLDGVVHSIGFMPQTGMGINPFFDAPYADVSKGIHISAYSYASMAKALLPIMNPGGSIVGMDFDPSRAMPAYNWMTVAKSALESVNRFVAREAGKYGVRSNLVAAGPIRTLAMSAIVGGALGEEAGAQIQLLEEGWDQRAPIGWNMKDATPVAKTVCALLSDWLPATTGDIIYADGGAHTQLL

[2] = Cytotoxicity against African green monkey Vero cells assessed as growth inhibition at 62.5 ug/ml after 48 hrs by MTT assay relative to control; assay type: cell-based; settings: chlorocebus sabaeus, read-out: GI
Staphylococcus aureus = experiment: Antibacterial activity against Staphylococcus aureus by dilution assay; assay type: functional
[3] = Selectivity index, ratio of IC50 for cytotoxicity against African green monkey Vero cells to MIC for antitubercular activity against Mycobacterium tuberculosis H37Rv ATCC 27294; assay type: toxicity, cell-based; settings: read-out: Selectivity Index
Vero = experiment: Cytotoxicity against African green monkey Vero cells assessed as reduction in cell viability incubated for 48 hrs by MTT assay; assay type: cell-based; settings: Chlorocebus sabaeus

| SMILES | MIC (Pseudomonas aeruginosa) | MIC (Escherichia coli) | MIC [1] [µM] | inhibition at 48 h, 62.5 ug/ml [2] [%] | MIC (Staphylococcus aureus) [µg/mL] | selectivity ratio [3] | IC50 (Vero) [µg/mL] |
| --- | --- | --- | --- | --- | --- | --- | --- |
| N#Cc1ccc(Cn2cc(CNC(=O)c3cccnc3)nn2)cc1 | 6.25 µg/mL (≈ 19.6 µM) | 6.25 µg/mL (≈ 19.6 µM) | 4.9 (≈ 1.56 µg/mL) | 17.7 | 6.25 (≈ 19.6 µM) | 256 | 399 (≈ 1250 µM) |
| N#Cc1ccc(Cn2cc(CNC(=O)c3ccccc3)nn2)cc1 | 25 µg/mL (≈ 78.8 µM) | 25 µg/mL (≈ 78.8 µM) | 39.4 (≈ 12.5 µg/mL) | – | 25 (≈ 78.8 µM) | – | – |
| O=C(O)c1cn(C2CC2)c2cc(N3CCNCC3)c(F)cc2c1=O [CIPROFLOXACIN] | 4 µg/mL (≈ 12.1 µM) | – | 9.41 (≈ 3.12 µg/mL) | – | 2 (≈ 6.04 µM) | – | – |
| O=C(OCc1cn(Cc2ccccc2F)nn1)c1ccccc1 | 50 µg/mL (≈ 161 µM) | 25 µg/mL (≈ 80.3 µM) | 80.3 (≈ 25 µg/mL) | – | 25 (≈ 80.3 µM) | – | – |
| O=C(NCc1cn(Cc2ccc(C(F)(F)F)cc2)nn1)c1cccnc1 | 12.5 µg/mL (≈ 34.6 µM) | 6.25 µg/mL (≈ 17.3 µM) | 4.31 (≈ 1.56 µg/mL) | 7.42 | 12.5 (≈ 34.6 µM) | 216 | 336 (≈ 931 µM) |
| O=[N+]([O-])c1ccc(Cn2cc(CSc3nnc(-c4cccnc4)o3)nn2)cc1 | 25 µg/mL (≈ 63.2 µM) | 50 µg/mL (≈ 126 µM) | 63.2 (≈ 25 µg/mL) | – | 25 (≈ 63.2 µM) | – | – |
| O=C(NCc1cn(Cc2ccc(C(F)(F)F)cc2)nn1)c1cnccn1 | 25 µg/mL (≈ 69 µM) | 12.5 µg/mL (≈ 34.5 µM) | 4.31 (≈ 1.56 µg/mL) | 8.4 | 12.5 (≈ 34.5 µM) | 219 | 342 (≈ 944 µM) |
| O=C(NCc1cn(Cc2ccc(F)cc2)nn1)c1cccnc1 | 25 µg/mL (≈ 80.3 µM) | 12.5 µg/mL (≈ 40.2 µM) | 80.3 (≈ 25 µg/mL) | – | 12.5 (≈ 40.2 µM) | – | – |
| Fc1ccccc1Cn1cc(CSc2nnc(-c3cccnc3)o2)nn1 | 25 µg/mL (≈ 67.9 µM) | 50 µg/mL (≈ 136 µM) | > 100 | – | 50 (≈ 136 µM) | – | – |
| N#Cc1ccc(Cn2cc(COC(=O)c3cnccn3)nn2)cc1 | 25 µg/mL (≈ 78 µM) | 50 µg/mL (≈ 156 µM) | 9.74 (≈ 3.12 µg/mL) | – | 12.5 (≈ 39 µM) | – | – |
| Cc1ccc(Cn2cc(CSc3nnc(-c4cccnc4)o3)nn2)cc1 | 225 µg/mL (≈ 617 µM) | 252 µg/mL (≈ 691 µM) | 34.3 (≈ 12.5 µg/mL) | – | 12.5 (≈ 34.3 µM) | – | – |
| FC(F)(F)c1ccc(Cn2cc(CSc3nnc(-c4cccnc4)o3)nn2)cc1 | 50 µg/mL (≈ 120 µM) | 50 µg/mL (≈ 120 µM) | > 100 | – | 25 (≈ 59.8 µM) | – | – |
| O=C(OCc1cn(Cc2ccc([N+](=O)[O-])cc2)nn1)c1cccnc1 | 25 µg/mL (≈ 73.7 µM) | 25 µg/mL (≈ 73.7 µM) | 36.8 (≈ 12.5 µg/mL) | – | 25 (≈ 73.7 µM) | – | – |
| Fc1ccc(Cn2cc(CSc3nnc(-c4cccnc4)o3)nn2)cc1 | inactive | inactive | > 100 | – | 50 (≈ 136 µM) | – | – |
| O=C(NCc1cn(Cc2ccc(C(F)(F)F)cc2)nn1)c1ccccc1 | 25 µg/mL (≈ 69.4 µM) | inactive | > 100 | – | 50 (≈ 139 µM) | – | – |
| N#Cc1ccc(Cn2cc(COC(=O)c3ccccc3)nn2)cc1 | 50 µg/mL (≈ 157 µM) | 25 µg/mL (≈ 78.5 µM) | 39.3 (≈ 12.5 µg/mL) | – | 25 (≈ 78.5 µM) | – | – |
| FC(F)(F)c1ccc(Cn2cc(CSc3nnc(-c4cnccn4)o3)nn2)cc1 | 25 µg/mL (≈ 59.6 µM) | 25 µg/mL (≈ 59.6 µM) | 59.6 (≈ 25 µg/mL) | – | 25 (≈ 59.6 µM) | – | – |
| O=[N+]([O-])c1ccc(Cn2cc(CSc3nnc(-c4cnccn4)o3)nn2)cc1 | 25 µg/mL (≈ 63.1 µM) | inactive | 15.8 (≈ 6.25 µg/mL) | – | 12.5 (≈ 31.5 µM) | – | – |
| O=C(OCc1cn(Cc2ccc(F)cc2)nn1)c1cccnc1 | 50 µg/mL (≈ 160 µM) | inactive | > 100 | – | 50 (≈ 160 µM) | – | – |
| Cc1ccc(Cn2cc(CSc3nnc(-c4cnccn4)o3)nn2)cc1 | 25 µg/mL (≈ 68.4 µM) | 12.5 µg/mL (≈ 34.2 µM) | 8.53 (≈ 3.12 µg/mL) | – | 12.5 (≈ 34.2 µM) | – | – |
| O=C(OCc1cn(Cc2ccc(C(F)(F)F)cc2)nn1)c1ccccc1 | inactive | inactive | > 100 | – | 50 (≈ 138 µM) | – | – |

| SMILES | MIC (Pseudomonas aeruginosa) | MIC (Escherichia coli) | MIC [1] [µM] | inhibition at 48 h, 62.5 ug/ml [2] [%] | MIC (Staphylococcus aureus) [µg/mL] | selectivity ratio [3] | IC50 (Vero) [µg/mL] |
| --- | --- | --- | --- | --- | --- | --- | --- |
| O=C(NCc1cn(Cc2ccc([N+](=O)[O-])cc2)nn1)c1cccnc1 | 6.25 µg/mL (≈ 18.5 µM) | 12.5 µg/mL (≈ 36.9 µM) | 4.61 (≈ 1.56 µg/mL) | 7.08 | 6.25 (≈ 18.5 µM) | 298 | 465 (≈ 1380 µM) |
| O=C(NCc1cn(Cc2ccccc2F)nn1)c1cnccn1 | 12.5 µg/mL (≈ 40 µM) | 12.5 µg/mL (≈ 40 µM) | 9.99 (≈ 3.12 µg/mL) | – | 6.25 (≈ 20 µM) | – | – |
| O=C(OCc1cn(Cc2ccc(F)cc2)nn1)c1ccccc1 | 25 µg/mL (≈ 80.3 µM) | 50 µg/mL (≈ 161 µM) | 80.3 (≈ 25 µg/mL) | – | 25 (≈ 80.3 µM) | – | – |
| O=C(NCc1cn(Cc2ccccc2F)nn1)c1cccnc1 | 25 µg/mL (≈ 80.3 µM) | 25 µg/mL (≈ 80.3 µM) | 10 (≈ 3.12 µg/mL) | – | 6.25 (≈ 20.1 µM) | – | – |
| N#Cc1ccc(Cn2cc(CSc3nnc(-c4cccnc4)o3)nn2)cc1 | 50 µg/mL (≈ 133 µM) | 50 µg/mL (≈ 133 µM) | 66.6 (≈ 25 µg/mL) | – | 50 (≈ 133 µM) | – | – |
| O=C(OCc1cn(Cc2ccccc2F)nn1)c1cnccn1 | 50 µg/mL (≈ 160 µM) | 25 µg/mL (≈ 79.8 µM) | 19.9 (≈ 6.23 µg/mL) | – | 25 (≈ 79.8 µM) | – | – |
| N#Cc1ccc(Cn2cc(COC(=O)c3cccnc3)nn2)cc1 | 50 µg/mL (≈ 157 µM) | 50 µg/mL (≈ 157 µM) | 78.3 (≈ 25 µg/mL) | – | 25 (≈ 78.3 µM) | – | – |
| O=C(OCc1cn(Cc2ccc([N+](=O)[O-])cc2)nn1)c1ccccc1 | inactive | inactive | > 100 | – | 50 (≈ 148 µM) | – | – |
| N#Cc1ccc(Cn2cc(CSc3nnc(-c4cnccn4)o3)nn2)cc1 | 50 µg/mL (≈ 133 µM) | 50 µg/mL (≈ 133 µM) | 16.6 (≈ 6.25 µg/mL) | – | 25 (≈ 66.4 µM) | – | – |
| O=C(OCc1cn(Cc2ccccc2F)nn1)c1cccnc1 | 50 µg/mL (≈ 160 µM) | 25 µg/mL (≈ 80.1 µM) | 80 (≈ 25 µg/mL) | – | 50 (≈ 160 µM) | – | – |
| O=C(OCc1cn(Cc2ccc([N+](=O)[O-])cc2)nn1)c1cnccn1 | 50 µg/mL (≈ 147 µM) | 25 µg/mL (≈ 73.5 µM) | 18.4 (≈ 6.25 µg/mL) | – | 25 (≈ 73.5 µM) | – | – |
| O=C(NCc1cn(Cc2ccccc2F)nn1)c1ccccc1 | 50 µg/mL (≈ 161 µM) | inactive | > 100 | – | 50 (≈ 161 µM) | – | – |
| Fc1ccc(Cn2cc(CSc3nnc(-c4cnccn4)o3)nn2)cc1 | 50 µg/mL (≈ 135 µM) | 25 µg/mL (≈ 67.7 µM) | 33.8 (≈ 12.5 µg/mL) | – | 25 (≈ 67.7 µM) | – | – |
| O=C(NCc1cn(Cc2ccc(F)cc2)nn1)c1ccccc1 | inactive | inactive | > 100 | – | 50 (≈ 161 µM) | – | – |
| CN[C@@H]1[C@H](O[C@H]2[C@H](O[C@H]3[C@H](O)[C@@H](O)[C@H](N=C(N)N)[C@@H](O)[C@@H]3N=C(N)N)O[C@@H](C)[C@]2(O)C=O)O[C@@H](CO)[C@H](O)[C@H]1O | – | – | 11.7 (≈ 6.83 µg/mL) | – | – | – | – |
| O=C(OCc1cn(Cc2ccc(C(F)(F)F)cc2)nn1)c1cnccn1 | 25 µg/mL (≈ 68.8 µM) | 25 µg/mL (≈ 68.8 µM) | 8.59 (≈ 3.12 µg/mL) | – | 25 (≈ 68.8 µM) | – | – |
| O=C(OCc1cn(Cc2ccc(F)cc2)nn1)c1cnccn1 | 25 µg/mL (≈ 79.8 µM) | 12.5 µg/mL (≈ 39.9 µM) | 9.95 (≈ 3.12 µg/mL) | – | 12.5 (≈ 39.9 µM) | – | – |
| Fc1ccccc1Cn1cc(CSc2nnc(-c3cnccn3)o2)nn1 | inactive | inactive | > 100 | – | 50 (≈ 135 µM) | – | – |
| O=C(NCc1cn(Cc2ccc([N+](=O)[O-])cc2)nn1)c1ccccc1 | 50 µg/mL (≈ 148 µM) | 50 µg/mL (≈ 148 µM) | > 100 | – | 50 (≈ 148 µM) | – | – |
| NC(=O)c1cnccn1 | – | – | 25.3 (≈ 3.12 µg/mL) | – | – | – | – |
| O=C(OCc1cn(Cc2ccc(C(F)(F)F)cc2)nn1)c1cccnc1 | 50 µg/mL (≈ 138 µM) | 25 µg/mL (≈ 69 µM) | 34.5 (≈ 12.5 µg/mL) | – | 25 (≈ 69 µM) | – | – |
